Measured values from patent publication US20250122160A1, “PROTEIN TYROSINE PHOSPHATASE INHIBITORS AND METHODS OF USE THEREOF” (Calico Life Sciences LLC, priority 0001, published 2025).

Experiments:
[1] = biological target: T1, His tagged PTPN2 (TC45) protein (Homo sapiens, UniProt P17706); experiment: Mobility shift assay (MSA) to determine potency of PTPN2 inhibitors; assay type: biochemical; settings: 0.5 nM enzyme, 2 μM substrate
T1 construct: made in house
T1 sequence (P17706 with tags, fused parts or gaps isoform P17706-2): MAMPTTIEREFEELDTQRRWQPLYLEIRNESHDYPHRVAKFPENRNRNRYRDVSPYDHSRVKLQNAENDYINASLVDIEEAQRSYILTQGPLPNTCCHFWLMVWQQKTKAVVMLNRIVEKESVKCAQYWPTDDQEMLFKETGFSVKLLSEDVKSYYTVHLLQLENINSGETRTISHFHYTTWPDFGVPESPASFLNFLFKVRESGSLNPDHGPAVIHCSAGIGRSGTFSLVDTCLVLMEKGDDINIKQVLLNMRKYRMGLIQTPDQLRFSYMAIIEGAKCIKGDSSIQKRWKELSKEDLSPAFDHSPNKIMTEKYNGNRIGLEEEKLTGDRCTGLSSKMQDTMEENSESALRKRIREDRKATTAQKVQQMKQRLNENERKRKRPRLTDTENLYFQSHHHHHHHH
Method in brief: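 His-tagged human PTPN2 (TC45), 0.5 nM, preincubated 10 min at room temperature with compound (12-point, 1:3 dilutions) in HEPES pH 7.5 buffer with EGTA, EDTA, Tween 20 and DTT. Then 2 μM OG488-labelled phospho-insulin-receptor peptide was added for 10 min and quenched. % conversion was read by mobility shift, and IC50 came from % inhibition.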

[2] = biological target: T2, His tagged full-length PTPN1 protein (Homo sapiens, UniProt P18031); experiment: Mobility shift assay (MSA) to determine potency of PTPN1 inhibitors; assay type: biochemical; settings: 0.5 nM enzyme, 2 μM substrate
T2 construct: made in house
T2 sequence (P18031 with tags, fused parts or gaps): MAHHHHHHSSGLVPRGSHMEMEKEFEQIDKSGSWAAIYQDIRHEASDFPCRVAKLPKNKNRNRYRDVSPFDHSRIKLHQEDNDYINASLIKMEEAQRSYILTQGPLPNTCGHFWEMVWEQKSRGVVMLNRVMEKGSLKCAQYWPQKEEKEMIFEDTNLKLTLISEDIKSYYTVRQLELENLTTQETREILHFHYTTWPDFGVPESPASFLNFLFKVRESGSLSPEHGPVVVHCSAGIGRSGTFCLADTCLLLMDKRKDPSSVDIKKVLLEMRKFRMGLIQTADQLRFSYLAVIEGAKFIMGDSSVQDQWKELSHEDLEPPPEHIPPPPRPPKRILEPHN
Method in brief: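 Readout is microfluidic mobility shift (ex 488/em 530 nm) of a 2 μM OG488-labelled pTyr insulin-receptor peptide after a 10 min room-temperature reaction, following 10 min enzyme–compound preincubation. Enzyme: 0.5 nM full-length His-tagged PTPN1 in HEPES pH 7.5 buffer. IC50 fitted from % inhibition at 12 concentrations (1:3 steps).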

Row | IC50 [2] [nM] | Compound | IC50 [1] [nM]
1 | 10 to 100 | O=C1CN(c2c(O)cc3c(c2F)C[C@H](NCC2(C(F)F)CC2)CC3)S(=O)(=O)N1 [Compound 355, 5-[(7R)-7-({[1-(difluoromethyl)cyclopropyl]methyl}amino)-1-fluoro-3-hydroxy-5,6,7,8-tetrahydronaphthalen-2-yl]-1λ^6,2,5-thiadiazolidine-1,1,3-trione] | 1 to 10
2 | 10 to 100 | CC(C)(C)OC(=O)N[C@@H]1CCc2cc(O)c(N3CC(=O)NS3(=O)=O)c(F)c2C1 [Compound 341, tert-butyl [(2R)-8-fluoro-6-hydroxy-7-(1,1,4-trioxo-1λ^6,2,5-thiadiazolidin-2-yl)-1,2,3,4-tetrahydronaphthalen-2-yl]carbamate] | 10 to 100
3 | > 100 | C[C@@H]1C[C@@H](N)Cc2c1cc(O)c(N1CC(=O)NS1(=O)=O)c2F [Compound 397, 5-[(5R,7R)-7-amino-1-fluoro-3-hydroxy-5-methyl-5,6,7,8-tetrahydronaphthalen-2-yl]-1λ^6,2,5-thiadiazolidine-1,1,3-trione] | > 100
4 | 10 to 100 | O=C1CN(c2c(O)cc3c(c2F)CC(CNCC2CC2)CC3)S(=O)(=O)N1 (centres unmarked) [Compound 399, 5-(7-{[(cyclopropylmethyl)amino]methyl}-1-fluoro-3-hydroxy-5,6,7,8-tetrahydronaphthalen-2-yl)-1λ^6,2,5-thiadiazolidine-1,1,3-trione] | 10 to 100
5 | 10 to 100 | CC(C)CCN1CCc2cc(O)c(N3CC(=O)NS3(=O)=O)c(F)c2C1 [Compound 220] | 10 to 100
6 | 10 to 100 | CC(C)CCNC(=O)N1CCc2cc(O)c(N3CC(=O)NS3(=O)=O)c(F)c2C1 [Compound 205] | 1 to 10
7 | > 100 | O=C1CN(c2c(O)cc3c(c2F)CN(C(=O)NCC2COC2)CC3)S(=O)(=O)N1 [Compound 283] | 10 to 100
8 | 10 to 100 | CC(C)CCN[C@@H]1COc2cc(O)c(N3CC(=O)NS3(=O)=O)c(F)c2C1 [Compound 372, 5-{(3S)-5-fluoro-7-hydroxy-3-[(3-methylbutyl)amino]-3,4-dihydro-2H-1-benzopyran-6-yl}-1λ^6,2,5-thiadiazolidine-1,1,3-trione] | 10 to 100
9 | 10 to 100 | O=C1CN(c2c(O)cc3c(c2F)CN(CCCN2CCOCC2)CC3)S(=O)(=O)N1 [Compound 229] | 10 to 100
10 | 10 to 100 | Cc1cc(CN[C@@H]2CCc3cc(O)c(N4CC(=O)NS4(=O)=O)c(F)c3C2)no1 [Compound 351, 5-[(7R)-1-fluoro-3-hydroxy-7-{[(5-methyl-1,2-oxazol-3-yl)methyl]amino}-5,6,7,8-tetrahydronaphthalen-2-yl]-1λ^6,2,5-thiadiazolidine-1,1,3-trione] | 10 to 100
11 | > 100 | O=C1CN(c2c(O)cc3c(c2F)C[C@H](NCC2(CF)CC2)CO3)S(=O)(=O)N1 [Compound 381, 5-[(3S)-5-fluoro-3-({[1-(fluoromethyl)cyclopropyl]methyl}amino)-7-hydroxy-3,4-dihydro-2H-1-benzopyran-6-yl]-1λ^6,2,5-thiadiazolidine-1,1,3-trione] | 10 to 100
12 | 10 to 100 | C[C@@H](N)CN1CCc2cc(O)c(N3CC(=O)NS3(=O)=O)c(F)c2C1 [Compound 246] | 10 to 100
13 | 1 to 10 | Cc1c(CCN2CCc3cc(O)c(N4CC(=O)NS4(=O)=O)c(F)c3C2)cnn1C [Compound 257] | 1 to 10
14 | > 100 | CC(C)CCCN1CCc2cc(O)c(N3CC(=O)NS3(=O)=O)c(F)c2C1=O [Compound 387, 5-[8-fluoro-6-hydroxy-2-(4-methylpentyl)-1-oxo-1,2,3,4-tetrahydroisoquinolin-7-yl]-1λ^6,2,5-thiadiazolidine-1,1,3-trione] | > 100
15 | 1 to 10 | [2H]C([2H])([2H])C([2H])([2H])C([2H])([2H])C([2H])([2H])NC1CCc2cc(O)c(N3CC(=O)NS3(=O)=O)c(F)c2C1 (centres unmarked) [Compound 336, 5-{7-[(^2H9)butylamino]-1-fluoro-3-hydroxy-5,6,7,8-tetrahydronaphthalen-2-yl}-1λ^6,2,5-thiadiazolidine-1,1,3-trione] | 1 to 10
16 | 1 to 10 | CCn1nc(C)c(CCN2CCc3cc(O)c(N4CC(=O)NS4(=O)=O)c(F)c3C2)c1C [Compound 276] | < 1
17 | 10 to 100 | O=C1CN(c2c(O)cc3c(c2F)C[C@H](NCC2CC2(F)F)CC3)S(=O)(=O)N1 (stereo partly drawn) [Compound 362, 5-[(7R)-7-{[(2,2-difluorocyclopropyl)methyl]amino}-1-fluoro-3-hydroxy-5,6,7,8-tetrahydronaphthalen-2-yl]-1λ^6,2,5-thiadiazolidine-1,1,3-trione] | 10 to 100

Row | IC50 [2] [nM] | Compound | IC50 [1] [nM]
18 | > 100 | CC(=O)N[C@@H]1CCc2cc(O)c(N3CC(=O)NS3(=O)=O)c(F)c2C1 [Compound 402, N-[(2R)-8-fluoro-6-hydroxy-7-(1,1,4-trioxo-1λ^6,2,5-thiadiazolidin-2-yl)-1,2,3,4-tetrahydronaphthalen-2-yl]acetamide] | > 100
19 | 1 to 10 | CC(C)(C)OC(=O)N1CCc2cc(O)c(N3CC(=O)NS3(=O)=O)c(F)c2C1 [Compound 221] | 10 to 100
20 | 10 to 100 | CC(C)(C)OC(=O)NCC1CCc2cc(O)c(N3CC(=O)NS3(=O)=O)c(F)c2C1 (centres unmarked) [Compound 391, tert-butyl {[8-fluoro-6-hydroxy-7-(1,1,4-trioxo-1λ^6,2,5-thiadiazolidin-2-yl)-1,2,3,4-tetrahydronaphthalen-2-yl]methyl}carbamate] | 10 to 100
21 | 10 to 100 | O=C1CN(c2c(O)cc3c(c2F)CN(CCCC2CCNCC2)CC3)S(=O)(=O)N1 [Compound 219] | 10 to 100
22 | 10 to 100 | O=C1CN(c2c(O)cc3c(c2F)CN(CCCc2cccc(C(F)(F)F)c2)CC3)S(=O)(=O)N1 [Compound 294] | 10 to 100
23 | 10 to 100 | O=C1CN(c2c(O)cc3c(c2F)CN(CCN2CCCC2)CC3)S(=O)(=O)N1 [Compound 193] | > 100
24 | > 100 | C[C@H]1Cc2c(cc(O)c(N3CC(=O)NS3(=O)=O)c2F)CN1 [Compound 289] | 10 to 100
25 | 10 to 100 | O=C1CN(c2c(O)cc3c(c2F)CN(CCc2cncnc2)CC3)S(=O)(=O)N1 [Compound 210] | > 100
26 | 10 to 100 | CC(C)CNCC1CCc2cc(O)c(N3CC(=O)NS3(=O)=O)c(F)c2C1 (centres unmarked) [Compound 333, 5-(1-fluoro-3-hydroxy-7-{[(2-methylpropyl)amino]methyl}-5,6,7,8-tetrahydronaphthalen-2-yl)-1λ^6,2,5-thiadiazolidine-1,1,3-trione] | 10 to 100
27 | 1 to 10 | CC(C)CCN[C@H]1Cc2c(cc(O)c(N3CC(=O)NS3(=O)=O)c2F)C[C@@H]1O [Compound 411, 5-{(6S,7S)-1-fluoro-3,6-dihydroxy-7-[(3-methylbutyl)amino]-5,6,7,8-tetrahydronaphthalen-2-yl}-1λ^6,2,5-thiadiazolidine-1,1,3-trione] | < 1
28 | 10 to 100 | CC(C)(C)CNC(=O)N1CCc2cc(O)c(N3CC(=O)NS3(=O)=O)c(F)c2C1 [Compound 277] | 1 to 10
29 | > 100 | CC(C)CCN[C@@H]1CCc2cc(O)c(N3CC(=O)NS3(=O)=O)c(F)c2[C@H]1O [Compound 406, 5-{(7R,8R)-1-fluoro-3,8-dihydroxy-7-[(3-methylbutyl)amino]-5,6,7,8-tetrahydronaphthalen-2-yl}-1λ^6,2,5-thiadiazolidine-1,1,3-trione] | 10 to 100
30 | 1 to 10 | CC(C)CCC[C@H]1Cc2c(cc(O)c(N3CC(=O)NS3(=O)=O)c2F)CN1 [Compound 325] | 1 to 10
31 | 10 to 100 | NC[C@H]1Cc2cc(O)c(N3CC(=O)NS3(=O)=O)c(F)c2C1 (single isomer, unassigned) [Compound 407] | 10 to 100
32 | 10 to 100 | O=C1CN(c2c(O)cc3c(c2F)CC(NCc2ccccn2)CC3)S(=O)(=O)N1 (centres unmarked) [Compound 155] | 10 to 100
33 | > 100 | CC1(C)COC(CCCCN2CCc3cc(O)c(N4CC(=O)NS4(=O)=O)c(F)c3C2)OC1 [Compound 296] | 10 to 100
34 | > 100 | O=C1CN(c2c(O)cc3c(c2F)CN(Cc2ccccn2)CC3)S(=O)(=O)N1 [Compound 184] | > 100
